Experimental data from PubChem BioAssay AID2060605 (Molecular Pharmacology Branch, DTP, NCI, 2025).

System: 947758-054-R-J2-PDC spheroid growth, percent test/control
Assay: Anticancer human tumor 947758-054-R-J2-PDC patient-derived colon adenocarcinoma cell line growth inhibition [CLK]
Conditions: spheroids with HUVEC and MSC; for IC50: curve of first compound; for viability, T/C: stronger effect = lower value
In short: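 Multi-cell-type spheroids combined patient-derived tumor cells with HUVEC endothelial cells and human mesenchymal stem cells. Paired agents were dosed in half-log steps down from about clinical Cmax, or from 10 microM where Cmax was unknown.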

[1] = second compound 0.0316 µM, first compound 0.0316 µM
[2] = second compound 0.0316 µM, first compound 0.1 µM
[3] = second compound 0.0316 µM, first compound 0.316 µM
[4] = second compound 0.0316 µM, first compound 1 µM
[5] = second compound 0.1 µM, first compound 0.0316 µM
[6] = second compound 0.1 µM, first compound 0.1 µM
[7] = second compound 0.1 µM, first compound 0.316 µM
[8] = second compound 0.1 µM, first compound 1 µM
[9] = second compound 0.316 µM, first compound 0.0316 µM
[10] = second compound 0.316 µM, first compound 0.1 µM
[11] = second compound 0.316 µM, first compound 0.316 µM
[12] = second compound 0.316 µM, first compound 1 µM
[13] = second compound 1 µM, first compound 0.0316 µM
[14] = second compound 1 µM, first compound 0.1 µM
[15] = second compound 1 µM, first compound 0.316 µM
[16] = second compound 1 µM, first compound 1 µM
[17] = second compound 3.16 µM, first compound 0.0316 µM
[18] = second compound 3.16 µM, first compound 0.1 µM
[19] = second compound 3.16 µM, first compound 0.316 µM
[20] = second compound 3.16 µM, first compound 1 µM
[21] = second compound 10 µM, first compound 0.0316 µM
[22] = second compound 10 µM, first compound 0.1 µM
[23] = second compound 10 µM, first compound 0.316 µM
[24] = second compound 10 µM, first compound 1 µM
[25] = second compound 0.0316 µM, first compound 0.00316 µM
[26] = second compound 0.0316 µM, first compound 0.01 µM
[27] = second compound 0.1 µM, first compound 0.00316 µM
[28] = second compound 0.1 µM, first compound 0.01 µM
[29] = second compound 0.316 µM, first compound 0.00316 µM
[30] = second compound 0.316 µM, first compound 0.01 µM
[31] = second compound 1 µM, first compound 0.00316 µM
[32] = second compound 1 µM, first compound 0.01 µM
[33] = second compound 3.16 µM, first compound 0.00316 µM
[34] = second compound 3.16 µM, first compound 0.01 µM
[35] = second compound 10 µM, first compound 0.00316 µM
[36] = second compound 10 µM, first compound 0.01 µM
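Note: spheroids exposed to compounds for one week before readout.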
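Throughout, for viability, T/C: 100% = DMSO vehicle control wells.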

CC(Nc1ccc2c(c1)OCCn1cc(N3C(=O)OCC3C(F)F)nc1-2)C(N)=O (stereo unspecified) + CNC(=O)c1ccc(Nc2nc(OC3CCCC3)c3c(-c4ccc5nc(C)oc5c4)c[nH]c3n2)c(OC)c1
IC50 (second compound 0.0316 µM): 75.4 nM
IC50 (second compound 0.1 µM): 94.9 nM
IC50 (second compound 0.316 µM): 59.4 nM
IC50 (second compound 1 µM): < 31.6 nM
IC50 (second compound 3.16 µM): < 31.6 nM
IC50 (second compound 10 µM): < 31.6 nM
viability, T/C [1]: 55.6%
viability, T/C [2]: 51.5%
viability, T/C [3]: 39.4%
viability, T/C [4]: 35.8%
viability, T/C (second compound 0.0316 µM, first compound 3.16 µM): 39%
viability, T/C (second compound 0.0316 µM, first compound 10 µM): 33.7%
viability, T/C [5]: 70.7%
viability, T/C [6]: 46.2%
viability, T/C [7]: 36.2%
viability, T/C [8]: 35%
viability, T/C (second compound 0.1 µM, first compound 3.16 µM): 28%
viability, T/C (second compound 0.1 µM, first compound 10 µM): 20.8%
viability, T/C [9]: 64.6%
viability, T/C [10]: 37.9%
viability, T/C [11]: 16.9%
viability, T/C [12]: 22.7%
viability, T/C (second compound 0.316 µM, first compound 3.16 µM): 21.6%
viability, T/C (second compound 0.316 µM, first compound 10 µM): 14.4%
viability, T/C [13]: 34.1%
viability, T/C [14]: 19.7%
viability, T/C [15]: 12.5%
viability, T/C [16]: 10.8%
viability, T/C (second compound 1 µM, first compound 3.16 µM): 10.8%
viability, T/C (second compound 1 µM, first compound 10 µM): 4.05%
viability, T/C [17]: 31.8%
viability, T/C [18]: 14.3%
viability, T/C [19]: 9.12%
viability, T/C [20]: 8.23%
viability, T/C (second compound 3.16 µM, first compound 3.16 µM): 5.63%
viability, T/C (second compound 3.16 µM, first compound 10 µM): 4.88%
viability, T/C [21]: 20.7%
viability, T/C [22]: 10.9%
viability, T/C [23]: 10.3%
viability, T/C [24]: 6.53%
viability, T/C (second compound 10 µM, first compound 3.16 µM): 4.37%
viability, T/C (second compound 10 µM, first compound 10 µM): 4.21%

CCN1CCN(Cc2ccc(Nc3ncc(F)c(-c4cc(F)c5nc(C)n(C(C)C)c5c4)n3)nc2)CC1 + CNC(=O)c1ccc(Nc2nc(OC3CCCC3)c3c(-c4ccc5nc(C)oc5c4)c[nH]c3n2)c(OC)c1
IC50 (second compound 0.0316 µM): 792 nM
IC50 (second compound 0.1 µM): 263 nM
IC50 (second compound 0.316 µM): 46 nM
IC50 (second compound 1 µM): 6.65 nM
IC50 (second compound 3.16 µM): < 3.16 nM
IC50 (second compound 10 µM): < 3.16 nM
viability, T/C [25]: 96.1%
viability, T/C [26]: 94.5%
viability, T/C [1]: 90.7%
viability, T/C [2]: 73%
viability, T/C [3]: 61.5%
viability, T/C [4]: 46.9%
viability, T/C [27]: 102%
viability, T/C [28]: 73.2%
viability, T/C [5]: 61.4%
viability, T/C [6]: 65.8%
viability, T/C [7]: 57.4%
viability, T/C [8]: 32.8%
viability, T/C [29]: 101%
viability, T/C [30]: 71.3%
viability, T/C [9]: 39.5%
viability, T/C [10]: 60.1%
viability, T/C [11]: 38.9%
viability, T/C [12]: 22.3%
viability, T/C [31]: 59.2%
viability, T/C [32]: 46.8%
viability, T/C [13]: 31.9%
viability, T/C [14]: 31%
viability, T/C [15]: 42.4%
viability, T/C [16]: 19.8%
viability, T/C [33]: 52.2%
viability, T/C [34]: 32.5%
viability, T/C [17]: 39.8%
viability, T/C [18]: 34%
viability, T/C [19]: 33.7%
viability, T/C [20]: 25.1%
viability, T/C [35]: 40%
viability, T/C [36]: 41.2%
viability, T/C [21]: 35.6%
viability, T/C [22]: 31.6%
viability, T/C [23]: 21.1%
viability, T/C [24]: 21.1%

COc1c(OCCCN2CCOCC2)ccc2c3n(c(=NC(=O)c4cnc(N)nc4)nc12)CCN3 + CNC(=O)c1ccc(Nc2nc(OC3CCCC3)c3c(-c4ccc5nc(C)oc5c4)c[nH]c3n2)c(OC)c1
IC50 (second compound 0.0316 µM): 18.1 nM
IC50 (second compound 0.1 µM): 14.7 nM
IC50 (second compound 0.316 µM): 7.81 nM
IC50 (second compound 1 µM): < 3.16 nM
IC50 (second compound 3.16 µM): < 3.16 nM
IC50 (second compound 10 µM): < 3.16 nM
viability, T/C [25]: 77%
viability, T/C [26]: 53.6%
viability, T/C [1]: 39.2%
viability, T/C [2]: 37.2%
viability, T/C [3]: 25.1%
viability, T/C [4]: 13.4%
viability, T/C [27]: 69.9%
viability, T/C [28]: 60.6%
viability, T/C [5]: 30.2%
viability, T/C [6]: 22.2%
viability, T/C [7]: 14.9%
viability, T/C [8]: 10.6%
viability, T/C [29]: 71.4%
viability, T/C [30]: 44.6%
viability, T/C [9]: 21.1%
viability, T/C [10]: 11.8%
viability, T/C [11]: 8.06%
viability, T/C [12]: 3.94%
viability, T/C [31]: 49.8%
viability, T/C [32]: 30.4%
viability, T/C [13]: 10.1%
viability, T/C [14]: 4.35%
viability, T/C [15]: 3.7%
viability, T/C [16]: 2.28%
viability, T/C [33]: 43.2%
viability, T/C [34]: 17.7%
viability, T/C [17]: 9.11%
viability, T/C [18]: 3.98%
viability, T/C [19]: 3.84%
viability, T/C [20]: 2.88%
viability, T/C [35]: 25.4%
viability, T/C [36]: 15.1%
viability, T/C [21]: 8.44%
viability, T/C [22]: 4.43%
viability, T/C [23]: 2.95%
viability, T/C [24]: 2.09%
